Measured values taken from patent publication US20110212467A1, “INHIBITORS OF dUTPase” (UNIVERSITY OF SOUTHERN CALIFORNIA, priority 2008, published 2011).
One block for each compound: values may come before it.

How the values were obtained:
dUTPase = biological target: T1, dUTPase (Homo sapiens, UniProt P33316); assay: dUTPase activity assay, % inhibition of dUTPase catalysis at 100 μM (Table 1); type: biochemical; conditions: fixed concentration of 100 μM
T1 sequence (P33316 94-252 limits assumed): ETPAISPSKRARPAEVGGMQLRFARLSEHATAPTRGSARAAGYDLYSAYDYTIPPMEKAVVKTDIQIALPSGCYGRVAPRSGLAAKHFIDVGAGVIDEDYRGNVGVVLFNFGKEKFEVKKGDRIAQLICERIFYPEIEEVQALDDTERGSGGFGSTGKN
Experimental: dUTPase Activity Assay Cells were harvested and protein isolated and quantified as per Western blotting. Twenty-five μg of total protein was normalized to a 20 μl reaction volume with PBS/protease inhibitor. Relative dUTPase activity was determined as previously described (9) and is expressed as fold-change compared to an identical transfection in the presence of 0.5 μg/ml dox.
These molecules were tested in our dUTPase activity assay at an initial 100 μM in vitro to determine their percentage inhibition of dUTPase catalysis relative to un-inhibited control. Table 1 illustrates the docking fitness scores of the top four active compounds and their ability to inhibit dUTPase activity.

[1] = system: MCF-7 human breast cancer cell line; assay: Growth inhibition by MTS assay in MCF-7 cells, alone and combined with FUdR; type: cell-based; conditions: MCF-7, MTS assay; for IC50: Homo sapiens, MCF7, read-out: concentration required to inhibit 50% cell growth; for combined drug effect with FUdR on growth inhibition: compound fixed at 62.5 μM with increasing concentrations of FUdR
Experimental: FIG. 9. Inhibitors of dUTPase induce growth arrest in the MCF-7 human breast cancer cell line. (A) MCF-7 cells were exposed to increasing concentrations of two novel dUTPase inhibitory lead compounds and growth inhibition was analyzed by MTS assay. […] (B) DU-203 at a fixed concentration of 62.5 μM was combined with increasing concentrations of FUdR and the combined drug effect analyzed by MTS assay and the degree of synergy determined using the methods of Chou and Talalay. […] BB-123 enhances the growth arrest of MCF-7 cells when combined with FUdR. (C) BB-123 at a fixed concentration of 62.5 μM was combined with increasing concentrations of FUdR and the combined drug effect analyzed as described previously.
Inhibitors of dUTPase induce growth arrest in the MCF-7 human breast cancer cell line. […] These growth inhibitory effects are consistent with the inhibition of dUTPase and the resultant accumulation of dUTP and uracil misincorporation during DNA replication. To test the specificity of these inhibitors, DU-203 and BB-123 were combined with the inhibitor of thymidylate synthase (TS), FUdR.

DPD = biological target: T2, DPD (Homo sapiens, UniProt Q12882); conditions: cited from earlier work
T2 construct: host or cells: liver
T2 sequence (Q12882 4-1025): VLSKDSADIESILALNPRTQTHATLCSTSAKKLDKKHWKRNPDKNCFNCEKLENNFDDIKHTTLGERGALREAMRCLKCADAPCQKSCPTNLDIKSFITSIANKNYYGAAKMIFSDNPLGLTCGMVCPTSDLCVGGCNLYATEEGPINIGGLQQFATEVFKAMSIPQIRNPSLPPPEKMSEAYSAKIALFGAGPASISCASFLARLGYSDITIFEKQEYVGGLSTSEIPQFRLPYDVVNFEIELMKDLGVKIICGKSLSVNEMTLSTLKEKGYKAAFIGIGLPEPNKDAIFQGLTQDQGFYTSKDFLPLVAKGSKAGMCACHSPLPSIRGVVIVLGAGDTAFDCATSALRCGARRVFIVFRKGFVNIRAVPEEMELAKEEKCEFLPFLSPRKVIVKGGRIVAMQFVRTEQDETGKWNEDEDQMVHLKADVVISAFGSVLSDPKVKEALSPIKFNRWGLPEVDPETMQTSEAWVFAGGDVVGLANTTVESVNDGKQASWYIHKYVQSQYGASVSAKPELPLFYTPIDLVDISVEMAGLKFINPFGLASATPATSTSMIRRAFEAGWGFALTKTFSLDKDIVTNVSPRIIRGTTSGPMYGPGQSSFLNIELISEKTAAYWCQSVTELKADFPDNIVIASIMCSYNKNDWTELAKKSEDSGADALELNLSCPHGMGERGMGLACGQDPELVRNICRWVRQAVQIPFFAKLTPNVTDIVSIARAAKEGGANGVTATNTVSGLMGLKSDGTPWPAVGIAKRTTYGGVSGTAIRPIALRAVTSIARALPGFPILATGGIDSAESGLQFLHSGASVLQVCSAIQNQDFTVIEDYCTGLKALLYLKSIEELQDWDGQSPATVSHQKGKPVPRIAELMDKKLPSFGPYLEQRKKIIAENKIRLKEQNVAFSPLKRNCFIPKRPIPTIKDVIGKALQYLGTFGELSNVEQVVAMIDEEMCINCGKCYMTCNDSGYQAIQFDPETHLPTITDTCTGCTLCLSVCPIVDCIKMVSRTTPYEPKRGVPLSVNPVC

MCF-7 pTet-off cells [2] = assay: dUTP accumulation assay; type: cell-based, human; conditions: 24 h; for reduction in dUTP pool expansion with dUTPase overexpression versus basal dUTPase: 10 μM 5-FU or 1 μM FUdR
Experimental: FIG. 5. Elevated dUTPase Protects Breast Cancer Cells from 5-FU. (A) Western blot and analysis of dUTPase expression and corresponding dUTPase enzyme activity assay following 72 h transfection with pTre-Tight:DUT-N in the presence and absence of 0.5 μg/m1 dox, Histogram bars represent the mean ±SEM of corresponding Western lysates analyzed in duplicate. (B) Analysis of dUTP accumulation in pTre-Tight:DUT-N-transfected MCF-7 psTet-off cells with basal (+dox) and induced (−dox) dUTPase expression and treated with 10 μM 5-FU, 1 μM FUdR and taxol (paclitaxel) 5 nM for 24 h, % dUTP was calculated as described in ‘Materials and Methods’, Histogram bars represent the mean ±SEM of two independent treatments, †=dUTP not detected. (C) Growth inhibition measured by MTS assay in pTre-Tight:DUT-N-transfected MCF-7 pTet-off cells following treatment with increasing concentrations (in μM) of 5-FU for 72 h. Histogram bars represent the mean ±SEM of three independent treatments, *=p<0.05, **=p<0.01.
dUTP Accumulation Assay MCF-7 pTet-off cells were treated with specified concentrations of 5-FU, FUdR and taxol for indicated times, harvested, and 3×10^6 cells were analyzed for nucleotide pool content using the assay developed by Sherman and Fyfe (10) modified to detect levels of TTP and dUTP by pre-incubating extracts with recombinant dUTPase (9, 11). Radioactive incorporation, measured in the presence of dUTPase represented the TTP pool, while untreated extracts represented both the dUTP and TTP pools. dUTP accumulation was determined by subtracting the results of extracts treated with dUTPase from untreated extracts and presented as % accumulation in histogram format. Statistical significance was determined using a two-tailed unpaired Student's t-test (Graphpad, San Diego, Calif.).
Elevated dUTPase Protects Breast Cancer Cells from 5-FU. […] A tetracycline-repressible dUTPase expression construct and overexpressed dUTPase with an approximate 4-fold increase in expression and enzymatic activity in transfected tet-inducible MCF-7 pTet-off cells (FIG. 5A) was utilized. […]

MCF-7 pTet-off cells [3] = assay: Growth inhibition assay in MCF-7 pTet-off cells; type: cell-based; conditions: Homo sapiens, MCF7; MCF-7 cells, 72 h
Experimental: Growth Inhibition Assay MCF-7 pTet-off cells were transfected in the presence or absence of 0.5 μg/ml of dox and growth inhibition was measured as previously (9) using CellTiter 96® AQueous One Solution (Promega, Madison, Wis.). Cells were exposed to increasing concentrations of 5-FU for 72 h. Absorbance was measured using a SpectraMax 190 microplate reader (Molecular Devices, Sunnyvale, Calif.) at 490 nm, with drug treated cells compared to untreated controls set at 100%. Statistical significance was determined using a two-tailed unpaired Student's t-test (Graphpad, San Diego, Calif.).
We subsequently investigated the effects of dUTPase overexpression on growth inhibition following exposure of MCF-7 pTet-off cells to increasing concentrations of 5-FU.

advanced breast cancer = conditions: cited from earlier work; for time to progression: capecitabine alone, or lapatinib combined with capecitabine

inhibition at 100 µM (dUTPase): 55.7%
SMILES: CCCc1ccc(OCC(=O)Nc2ccc(S(=O)(=O)Nc3onc(C)c3C)cc2)cc1 [Du 7]

inhibition at 100 µM (dUTPase): 28.5%
SMILES: Cc1cc(C)c(NC(=O)CSc2nc3ccc(NC(=O)CSc4nnc(COc5ccccc5)n4-c4ccccc4)cc3s2)c(C)c1 [Du 44]

% dUTPase Inhibition (dUTPase): Inactive
SMILES: N#Cc1c(N)nc(SCC(=O)c2ccc(F)cc2)c(C#N)c1-c1ccc(OCc2ccccc2)cc1 [Du 202]

IC50 [1]: 65.1 µM
SMILES: COc1cc(/C=N/NC(=O)C(Cc2c[nH]c3ccccc23)NC(=O)OCc2ccccc2)cc([N+](=O)[O-])c1O (centres unmarked) [Du 203]
combined drug effect with FUdR on growth inhibition [1]: enhanced growth inhibition is observed at all concentrations tested

Continued, compound first:

SMILES: CC(=O)CSc1nc2c(c(=O)[nH]c(=O)n2C)n1CC(O)COc1ccccc1C (centres unmarked) [BB37]
inhibition at 100 µM (dUTPase): 34%

SMILES: CCc1ccc(N2CN(c3ccc(CC)cc3)CN(c3ccc(CC)cc3)C2)cc1 [BB123]
IC50 [1]: 73.8 µM | combined drug effect with FUdR on growth inhibition [1]: enhanced growth inhibition at all concentrations tested | combined drug effect with FUdR on growth inhibition ([1]; listed as BB-123): enhanced growth inhibition is observed at all concentrations tested

SMILES: O=c1[nH]cc(F)c(=O)[nH]1 [Compound 5-FU, 5-fluorouracil]
5-FU degraded by DPD in the liver (DPD): > 80% | reduction in dUTP pool expansion with dUTPase overexpression versus basal dUTPase (MCF-7 pTet-off cells [2]): 37% | IC50 (MCF-7 pTet-off cells [3]): > 10 µM

SMILES: O=c1[nH]c(=O)n([C@H]2C[C@H](O)[C@@H](CO)O2)cc1F [FUdR, fluorodeoxyuridine]
reduction in dUTP pool expansion with dUTPase overexpression versus basal dUTPase (MCF-7 pTet-off cells [2]): 38%

SMILES: CCCCCOC(=O)Nc1nc(=O)n([C@@H]2O[C@H](C)[C@@H](O)[C@H]2O)cc1F [capecitabine]
time to progression (advanced breast cancer): 19.7 weeks

SMILES: CS(=O)(=O)CCNCc1ccc(-c2ccc3ncnc(Nc4ccc(OCc5cccc(F)c5)c(Cl)c4)c3c2)o1 [lapatinib]
time to progression (advanced breast cancer): 36.9 weeks | improved response rate compared to capecitabine alone (advanced breast cancer; combined with capecitabine, ErbB2 positive advanced breast cancer, previously failed multiple lines of therapy): 12.2%

SMILES: CC(=O)O[C@H]1C(=O)[C@@]2(C)[C@H]([C@H](OC(=O)c3ccccc3)[C@]3(O)C[C@H](OC(=O)[C@H](O)[C@@H](NC(=O)c4ccccc4)c4ccccc4)C(C)=C1C3(C)C)[C@]1(OC(C)=O)CO[C@@H]1C[C@@H]2O [paclitaxel]
dUTP detection (MCF-7 pTet-off cells [2]; taxol 5 nM, basal or induced dUTPase expression): no detection of dUTP
